In patent publication US4510307A, “6-Quinazolinesulfonyl derivatives and process for preparation thereof” (Asahi Kasei Kogyo Kabushiki Kaisha, priority 1980, dated 1985):
Read-outs that look alike come from different tables or passages of the source.

How the values were obtained:
[1] = test system: vertebral artery; test: Effect on blood flow volume of vertebral artery of dog; format: in vivo, dog of mixed breed; details: Canis lupus familiaris; 1 mg/Kg intravenous; anesthetized dog; read-out: Increased Blood Flow Volume in Vertebral Artery
Experimental: (§1) The effect of the 6-quinazolinesulfonyl derivatives and the pharmaceutically acceptable acid addition salts of this invention on the vasodilation of the femoral and vertebral arteries can be measured by anesthetizing a dog of mixed breed weighing 8 to 15 Kg by an intravenous administration of 35 mg/Kg of pentbarbital, providing an acute type probe (a product of Nippon Koden K.K., Japan) with the femoral and vertebral arteries, administering the 6-quinazolinesulfonyl derivatives and the pharmaceutically acceptable acid addition salts to the femoral vein through a polyethylene tube inserted into the femoral vein side chain and measuring the blood flow volume with an electromagnetic flowmeter (a product of Nippon Koden K.K., Japan, "MF-27"). For example, when 1 mg/Kg of 1-[4-(N-methyl-N-cyclohexylamino)-6-quinazolinesulfonyl]-4-(2-ethoxy-2- phenylethyl)piperazine was intravenously administered, the increased blood flow volume in the femoral artery was 33% and the increased blood flow volume in the vertebral artery was 59%.
(§2) The effect on the vasodilatation of the femoral and vertebral arteries was measured by anesthetizing a dog of mixed breed weighing 8 to 15 Kg by an intravenous administration of 35 mg/Kg of pentbarbital, providing an acute type probe (a product of Nippon Koden K.K., Japan) with the femoral and vertebral arteries, administering the 6-quinazolinesulfonyl derivatives and their pharmaceutically acceptable acid addition salts to the femoral vein through a polyethylene tube inserted into the femoral vein side chain and measuring the blood flow volume with an electromagnetic blood flowmeter (a product of Nippon Koden K.K., Japan, "MF-27").

[2] = test system: human blood platelet cAMP PDE; test: PDE inhibition, c-AMP-decomposing PDE of human blood platelet; format: biochemical; details: human blood platelet cAMP PDE specimen; read-out: PDE Inhibition I50, Human Blood Platelet (PII)
Text: (§3) More specifically, from the results of the experiment using an enzyme specimen in accordance with the reports [Mol. Pharmacol., 15, 49 (1979) and Biochem. Biophys. […] The 6-quinazolinesulfonyl derivatives and the pharmaceutically acceptable acid addition salts have inhibited the decomposition due to the enzyme specimens of substrate c-AMP and guanosine-3',5'-monophosphate (abbreviated "c-GMP"). This means that the compounds of this invention can inhibit the decomposition of the c-AMP and maintain the c-AMP in tissue at a high concentration. In other words, the compounds of this invention are effective for the improvement and medical treatment of a disease accompanied by reduction in the c-AMP and a disease accompanied by infiltration of calcium into tissue, for example, the contraction and convulsion of vascular smooth muscle.
(§4) As the enzyme specimens, human blood platelet and hog cerebral cortex were partially purified in accordance with reports [Mol. Pharmacol., 15, 49 (1979) and Biochem. Biophys. Res. Comun., 84, 277 (1978)]. The effect of the 6-quinazolinesulfonyl derivatives and their pharmaceutically acceptable acid addition salts of this invention on the c-AMP-decomposing PDE and the calmodulin or calcium-dependent cyclic nucleotide PDE was examined under the conditions in accordance with the above described reports. […] The activity of the compounds of this invention is expressed by the concentration which is required to inhibit 50% of the decomposition of the c-AMP-decomposing PDE, i.e., I50 by μM.
*^1 The human blood platelet cAMP PDE specimen was employed.

[3] = test system: femoral artery; test: Effect on blood flow volume of femoral artery of dog; format: in vivo, dog of mixed breed; details: Canis lupus familiaris; 1 mg/Kg intravenous; anesthetized dog; read-out: Increased Blood Flow Volume in Femoral Artery
Experimental: as §1, §2

[4] = test system: mesenteric artery; test: Relaxation of Mesenteric Artery (isolated rabbit mesenteric artery contracted with KCl); details: Oryctolagus cuniculus, concentration for 50% relaxation, KCl 15~20 mM contraction, read-out: Relaxation of Mesenteric Artery ED50
Experimental: When, for example, 1-[4-(N-methyl-N-cyclohexylamino)-6-quinazolinesulfonyl]-4-(2-ethoxy-2-phenylethyl)piperazine was added and a complete relaxation was designated 100%, the concentration which could bring about a relaxation of 50%, i.e., ED50 was 0.8 μM.
After a home bred rabbit of a Japanese species weighing about 3 Kg was subjected to bloodletting, resulting in death and then to abdominal incision, the mesenteric artery was taken out, cut into helicoids of 2 mm×25 mm and suspended in a 20 ml organ bath filled with a Krebs-Henseleit solution into which a mixed gas of 95% by volume of O2 and 5% by volume of CO2 was introduced and one end of the artery was connected with an isometric transducer. When a load of 1.5 g was applied to the artery, the contraction and the relaxation of the artery was recorded as a weight on the transducer (a product of Nippon Koden K.K., Japan, "FD Pickup TB-912T"). The relaxation of the mesenteric artery was observed by adding the 6-quinazolinesulfonyl derivatives and their pharmaceutically acceptable acid addition salts to the mesenteric artery at the condition of about one half of the maxinum contraction with KCl at a KCl concentrantion of 15~20 mM. When the complete relaxation of the mesenteric artery was designated 100%, the concentration of the 6-quinazolinesulfonyl derivatives and their pharmaceutically acceptable acid addition salts which brought about a relaxation of 50% is shown in Table 6.

[5] = Acute toxicity, intravenous administration in mice; details: mouse, in vivo, male ddY-strain mice
Experimental: Furthermore, when the 6-quinazolinesulfonyl derivatives and the pharmaceutically acceptable acid addition salts of this invention are intravenously and arterially administered for the above described purposes, any remarkable toxicity cannot be observed.
The acute toxicity of the 6-quinazolinesulfonyl derivatives and their pharmaceutically acceptable acid addition salts was measured by giving male ddY-strain mice an intravenous administration.

[6] = test system: hog cerebral cortex calmodulin or calcium-dependent cyclic nucleotide PDE; test: PDE inhibition, calmodulin or calcium-dependent cyclic nucleotide PDE of hog cerebral cortex; format: biochemical
Text: as §3, §4
*^2 The enzyme activity was measured by using calmodulin and Ca^+
dependent specimens. The nonactivation was measured in the presence of
0.2 mM of EGTA, while the activation was measured in the presence of 0.2
mM of CaCl2 and 8 units of calmodulin.

[7] = activated: 0.2 mM CaCl2 and 8 units of calmodulin, read-out: PDE Inhibition I50, Hog Cerebral Cortex (PII), Activated
[8] = non-activated: presence of 0.2 mM EGTA, read-out: PDE Inhibition I50, Hog Cerebral Cortex (PII), Non-activated

SMILES	change in vivo at 1 mg/kg [1]	IC50 [2]	change in vivo at 1 mg/kg [3]	EC50 [4]	LD50 [5]	IC50 [6, 7]	IC50 [6, 8]	PDE Inhibition I50, Hog Cerebral Cortex (PII), Non-activated ([6]; non-activated: presence of 0.2 mM EGTA)
CCOC(CN1CCN(S(=O)(=O)c2ccc3ncnc(N4CCCCC4)c3c2)CC1)c1ccccc1 (centres unmarked) [Compound (6), 1-(4-piperidino-6-quinazolinesulfonyl)-4-(2-ethoxy-2-phenylethyl)-piperazine]	51%	850 µM	31%	1.7 µM	108 mg/kg	31 µM	15 µM	–
O=S(=O)(c1ccc2ncnc(N3CCCCC3)c2c1)N1CCN(CC=Cc2ccccc2)CC1 [Compound (9), 1-(4-piperidino-6-quinazolinesulfonyl)-4-cinnamylpiperazine]	42%	700 µM	24%	3 µM	133 mg/kg	20 µM	–	not inhibited
CCOC(CN1CCN(S(=O)(=O)c2ccc3ncnc(N(C)C4CCCCC4)c3c2)CC1)c1ccccc1 (centres unmarked) [Compound (19), 1-[4-(N-methyl-N-cyclohexylamino)-6-quinazolinesulfonyl]-4-(2-ethoxy-2-phenylethyl)piperazine]	59%	750 µM	33%	0.8 µM	63 mg/kg	4 µM	4 µM	–
CCOC(CN1CCN(S(=O)(=O)c2ccc3ncnc(N(C)c4ccccc4)c3c2)CC1)c1ccccc1 (centres unmarked) [Compound (23), 1-[4-(N-methylanilino)-6-quinazolinesulfonyl]-4-(2-ethoxy-2-phenylethyl)-piperazine]	38%	900 µM	25%	2.2 µM	98 mg/kg	11 µM	24 µM	–
CCOC(CN1CCN(S(=O)(=O)c2ccc3ncnc(N(C)Cc4ccccc4)c3c2)CC1)c1ccccc1 (centres unmarked) [Compound (25), 1-[4-(N-methyl-N-benzylamino)-6-quinazolinesulfonyl]-4-(2-ethoxy-2-phenylethyl)piperazine]	48%	850 µM	36%	0.8 µM	72 mg/kg	7 µM	7 µM	–
NCCCCNS(=O)(=O)c1ccc2ncnc(N3CCCCC3)c2c1 [Compound (31), N-(4-aminobutyl)-4-piperidino-6-quinazolinesulfonamide]	48%	300 µM	28%	21 µM	45 mg/kg	75 µM	88 µM	–
NCCCCCCNS(=O)(=O)c1ccc2ncnc(N3CCCCC3)c2c1 [Compound (32), N-(6-aminohexyl)-4-piperidino-6-quinazolinesulfonamide]	36%	520 µM	21%	24 µM	95 mg/kg	111 µM	94 µM	–
CCCCN(CCCC)c1ncnc2ccc(S(=O)(=O)NCCCCN)cc12 [Compound (37), N-(4-aminobutyl)-4-dibutylamino-6-quinazolinesulfonamide]	41%	250 µM	24%	8 µM	103 mg/kg	44 µM	109 µM	–
